# According to patent publication US20250282795A1, “EGFR Inhibitors in cancer treatment” (Celyn Therapeutics, Inc., priority 2022, published 2025):
# Legend:
# Type in all cases: cell-based
# Ba/F3 (EGFRwt) = assay: Cellular growth inhibition assay (CellTiter-Glo), Ba/F3 (EGFRwt); details: Mus musculus, BaF3, 72 h; Ba/F3 (Wild type) with 10 ng/ml rhEGF, 3 days of incubation
# Protocol: (§1) Example E. Cellular Growth Inhibition Assay
# (§2) Ba/F3(Empty vector) (Signosis), Ba/F3(Wild type) (Signosis), Ba/F3(L^858R+T790M) (Signosis), Ba/F3(A767_dupASV) (Signosis), Ba/F3(D770_N771insSVD) (Signosis), Ba/F3(H773_V774insNPH) (Signosis) were seeded at a density of 4000 cells per well in a CellBIND® 384-well Flat Clear Bottom Black Polystyrene Microplates (Coming, USA, Cat #3770) in 45 μl total volume of RPMI (PanEco, Cat #C330, Russia) with […] (HyClone, Cat #SV30160.03) and with 10 ng/ml rmIL-3 (RD systems, USA, Cat #403-ML-025) (for BaBF3(Empty vector)) and with 10 ng/ml rhEGF (ThermoFisher, USA, Cat #PHG0311L) (for BaCF3(Wild type)). 500× compounds solutions in DMSO (Sigma Cat #D2650) were prepared into Cmpnds plate (DiamondWell Plate, Axigen, Cat #P-384-120SQ-C—S) and DMSO only control was included. 1.l of 500× compounds (Cmpnds plate) was added to 49 µl of culture medium into Dilution plate (Diamond Well Plate, Axigen, Cat #P-384-120SQ-C—S), mixed and then 5 μl of 10× compounds solutions were transferred to cells followed by centrifugation at 100 g for 1 min. Final DMSO concentration was 0.2% o. After 3 days of incubation 10.l of CellTiter-Glo (Promega, CAT #G7572) were added to the cells, plate was centrifuged at 100 g for 1 min and luminescence signal was measured using Microplate Reader (CLARIOStar).
# Ba/F3 (L858R + T790M) = assay: Cellular growth inhibition assay (CellTiter-Glo), Ba/F3 (L858R+T790M); details: Mus musculus, BaF3, 72 h; 3 days of incubation
# Protocol: as §1, §2
# Ba/F3 (A767_dupASV) = assay: Cellular growth inhibition assay (CellTiter-Glo), Ba/F3 (A767_dupASV); details: Mus musculus, BaF3, 72 h; 3 days of incubation; read-out: Ba/F3 (A767_dup ASV) CC50
# Protocol: as §1, §2
# Ba/F3 (D770_N771insSVD) = assay: Cellular growth inhibition assay (CellTiter-Glo), Ba/F3 (D770_N771insSVD); details: Mus musculus, BaF3, 72 h; 3 days of incubation; read-out: Ba/F3 (D770_N771 insSVD) CC50
# Protocol: as §1, §2
# Ba/F3 (H773_V774insSVD) = assay: Cellular growth inhibition assay (CellTiter-Glo), Ba/F3 (H773_V774insSVD); details: Mus musculus, BaF3, 72 h; 3 days of incubation; read-out: Ba/F3 (H773_V774 insSVD) CC50
# [1] = Cellular growth inhibition assay (CellTiter-Glo), Ba/F3 (Empty vector); details: mouse, Ba/F3 cells with empty vector; Ba/F3 (Empty vector) with 10 ng/ml rmIL-3, 3 days of incubation
# Protocol: as §1, §2
SMILES,CC50 (Ba/F3 (EGFRwt)) [nM],CC50 (Ba/F3 (L858R + T790M)) [nM],CC50 (Ba/F3 (A767_dupASV)) [nM],CC50 (Ba/F3 (D770_N771insSVD)) [nM],CC50 (Ba/F3 (H773_V774insSVD)) [nM],CC50 at 3 days [1] [nM]
"COc1c(F)cccc1Nc1c2[nH]c3c1C(=O)NCC3C/C=C/COc1cccc(c1)COc1cnccc1-2 (centres unmarked) [Compound 29, (19E)-28-[(3-Fluoro-2-methoxyphenyl)amino]-3,22-dioxa-6,11,15-triazapentacyclo[21.3.1^10,13.0^4,9.0^12,17]octacosa-1(27),4,6,8,10(28),12,19,23,25-nonaen-14-one]",100 to 1000,1000 to 10000,100 to 1000,100 to 1000,1000 to 10000,> 10000
"COc1c(F)cccc1Nc1c2[nH]c3c1C(=O)NCC3C/C=C\CCCC(=O)N1CCCC(COc3cnccc3-2)C1 (centres unmarked) [Compound 117, 25-[(3-Fluoro-2-methoxyphenyl)amino]-7,8,9,10,14,15,18,18a,19,20-decahydro-6H-7,11-methano-22,24-methenodipyrido[3,4-b:4′,3′-f][1,5,15]oxadiazacycloicosine-12,21(13H,23H)-dione]",100 to 1000,1000 to 10000,10 to 100,100 to 1000,1000 to 10000,> 10000
"COc1c(F)cccc1Nc1c2[nH]c3c1C(=O)NCC3C/C=C/CCCC(=O)N1CCCC(COc3cnccc3-2)C1 (centres unmarked) [Compound 118, 25-[(3-Fluoro-2-methoxyphenyl)amino]-7,8,9,10,14,15,18,18a,19,20-decahydro-6H-7,11-methano-22,24-methenodipyrido[3,4-b:4′,3′-f][1,5,15]oxadiazacycloicosine-12,21(13H,23H)-dione]",1000 to 10000,1000 to 10000,100 to 1000,1000 to 10000,1000 to 10000,1000 to 10000
"COc1c(F)cccc1Nc1c2[nH]c3c1C(=O)NCC3CCCCCCC(=O)N1CCCC(COc3cnccc3-2)C1 (centres unmarked) [Compound 119, 25-[(3-Fluoro-2-methoxyphenyl)amino]-7,8,9,10,14,15,16,17,18,18a,19,20-dodecahydro-6H-7,11-methano-22,24-methenodipyrido[3,4-b:4′,3′-f][1,5,15]oxadiazacycloicosine-12,21(13H,23H)-dione]",1000 to 10000,> 10000,100 to 1000,1000 to 10000,> 10000,> 10000
"COc1c(F)cccc1Nc1c2[nH]c3c1C(=O)NCC3CCCCN(C)CCOc1cnccc1-2 (centres unmarked) [Compound 127, 19-[(3-Fluoro-2-methoxyphenyl)amino]-8-methyl-6,7,8,9,10,11,12,12a,13,14-decahydro-16,18-methenodipyrido[3,4-i:4′,3′-m][1,4,11]oxadiazacyclotetradecin-15(17H)-one]",1000 to 10000,> 10000,1000 to 10000,> 10000,> 10000,> 10000
"COc1c(F)cccc1Nc1c2[nH]c3c1C(=O)NC(CC=CCOCCOc1cnccc1-2)C3 (centres unmarked) [Compound 128, 20-(3-fluoro-2-methoxyanilino)-2,3,5,8,9,10-hexahydro-9,13-methano-12,15-(metheno)pyrido[3,4-e][1,4,8,12]dioxadiazacycloheptadecin-11(14H)-one]",1000 to 10000,> 10000,1000 to 10000,> 10000,> 10000,> 10000
"COc1c(F)cccc1Nc1c2[nH]c3c1C(=O)NCC3CCCCCCN1CCCC(COc3cnccc3-2)C1 (centres unmarked) [Compound 129, 24-(3-fluoro-2-methoxyanilino)-7,8,9,10,13,14,15,16,17,17a,18,19-dodecahydro-6H,12H-7,11-methano-21,23-(metheno)dipyrido[3,4-b: 4′,3′-f][1,5,14]oxadiazacyclononadecin-20(22H)-one]",100 to 1000,1000 to 10000,1 to 10,10 to 100,100 to 1000,> 10000
"COc1c(F)cccc1Nc1c2[nH]c3c1C(=O)NCC3CC(=O)N1CCN(CCOc3cnccc3-2)CC1 (centres unmarked) [Compound 131, 20-(3-fluoro-2-methoxyanilino)-6,7,9,10,13,13a,14,15-octahydro-12H-8,11-ethano-17,19-(metheno)dipyrido[3,4-j: 4′,3′-n][1,4,7,12]oxatriazacyclopentadecine-12,16(18H)-dione]",10 to 100,100 to 1000,1 to 10,10 to 100,100 to 1000,1000 to 10000
"COc1c(F)cccc1Nc1c2[nH]c3c1C(=O)NCC3CC(=O)NCC(=O)NCCCOc1cnccc1-2 (centres unmarked) [Compound 132, 21-(3-fluoro-2-methoxyanilino)-6,7,8,9,11,12,14,14a,15,16-decahydro-18,20-(metheno)dipyrido[3,4-k: 4′,3′-o][1,5,8,13]oxatriazacyclohexadecine-10,13,17(19H)-trione]",> 10000,> 10000,1000 to 10000,> 10000,> 10000,> 10000
"COc1c(F)cccc1Nc1c2[nH]c3c1C(=O)NCC3CCCOCCN(C)CCCOc1cnccc1-2 (centres unmarked) [Compound 145, 22-(3-fluoro-2-methoxyanilino)-9-methyl-6,7,8,9,10,11,13,14,15,15a,16,17-dodecahydro-19,21-(metheno)dipyrido[3,4-i: 4′,3′-m][1,8,4,12]dioxadiazacycloheptadecin-18(20H)-one]",> 10000,> 10000,10 to 100,10 to 100,100 to 1000,> 10000
"COc1c(F)cccc1Nc1c2[nH]c3c1C(=O)NCC3CCCN1CCC(COc3cnccc3-2)C1 (centres unmarked) [Compound 161, 20-(3-fluoro-2-methoxyanilino)-6,7,8,9,11,12,13,13a,14,15-decahydro-7,10-methano-17,19-(metheno)dipyrido[3,4-b: 4′,3′-f][1,5,11]oxadiazacyclopentadecin-16(18H)-one]",,1000 to 10000,10 to 100,100 to 1000,1000 to 10000,> 10000
"COc1c(F)cccc1Nc1c2[nH]c3c1C(=O)NCC3CCCCCCNCCOc1cnccc1-2 (centres unmarked) [Compound 164, 21-(3-fluoro-2-methoxyanilino)-6,7,8,9,10,11,12,13,14,14a,15,16-dodecahydro-18,20-(metheno)dipyrido[3,4-k: 4′,3′-o][1,4,13]oxadiazacyclohexadecin-17(19H)-one]",,1000 to 10000,10 to 100,10 to 100,100 to 1000,> 10000
"COc1c(F)cccc1Nc1c2[nH]c3c1C(=O)NCC3CCCN1CCCC(C1)Oc1cnccc1-2 (centres unmarked) [Compound 166, 20-(3-fluoro-2-methoxyanilino)-6,7,8,9,11,12,13,13a,14,15-decahydro-6,10-methano-17,19-(metheno)dipyrido[3,4-b: 4′,3′-f][1,5,11]oxadiazacyclopentadecin-16(18H)-one]",,1000 to 10000,1 to 10,10 to 100,100 to 1000,> 10000
"COc1c(F)cccc1Nc1c2[nH]c3c1C(=O)NC[C@@H]3CCCN1CCC[C@@H]1COc1cnccc1-2 [Compound 167, (12aR)-20-[(3-fluoro-2-methoxyphenyl)amino]-1,2,12a,13,14,15,17,18,19,19a-decahydro-12H-4,6-methenodipyrido[3,4-h:4′,3′-l]pyrrolo[2,1-c][1,4,10]oxadiazacyclotridecin-3(5H)-one]",,1000 to 10000,10 to 100,100 to 1000,100 to 1000,> 10000
